Test results taken from patent publication EP0097071A1, “Benzhydryl sulfinylacetamide derivatives and their therapeutical use” (LABORATOIRE L. LAFON Société anonyme dite:, priority 1982, dated 1983).

What was measured:
[1] = test system: rats mâles; experiment: Global behaviour and reactivities, rat; assay type: in vivo
[2] = test system: rats; experiment: Interaction with amphetamine (stereotypies); assay type: in vivo; details: rat, 64 mg/kg i.p.
Summary of the method: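 Male rats, groups of 6, given test compound i.p. as aqueous gum arabic suspension; amphetamine 2 mg/kg i.p. injected 30 min later and stereotypies scored.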

[3] = test system: souris; experiment: Interaction with oxotremorine; assay type: in vivo
Summary of the method: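 Groups of 6 male mice received test compound i.p. as a suspension in aqueous gum arabic (20 ml/kg).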

[4] = test system: souris mâle; experiment: Pentobarbital-induced sleep duration; assay type: in vivo; details: dose 32 mg/kg i.p., 0,5 h before pentobarbital
Excerpt: Les composés selon l'invention se distinguent du benzhydrylsulfinylacétamide (CRL 40476) précité par une différence d'action vis-à-vis du sommeil barbiturique. […]. Cette différence d'action qui est intéressante sur le plan thérapeutique est illustrée par le tableau IV

[5] = test system: souris groupées; experiment: Toxicity in grouped mice; details: in vivo
[6] = test system: souris; experiment: Traction test; assay type: in vivo; details: 0,5 h after administration, dose not stated
[7] = test system: souris; experiment: Intergroup aggressiveness; assay type: in vivo; details: dose not stated
Summary of the method: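 Male mice, housed in groups of 3 on either side of an opaque partition for 3 weeks, received compound i.p. as a gum arabic suspension at 20 ml/kg. After 30 min the partition was removed, and fights were counted over 10 min.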

[8] = test system: souris; experiment: Four plates test; assay type: in vivo; details: 0,5 h after administration, dose not stated
[9] = test system: souris; experiment: Motility reduced by hypoxic aggression (acute hypobaric anoxia); assay type: in vivo; details: 32 mg/kg, mais surtout 128 mg/kg i.p.
Summary of the method: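 Male mice (10 per dose, 20 controls) got compound i.p. as an aqueous gum arabic suspension (20 ml/kg). Thirty minutes later they underwent acute hypobaric anoxia: 600 mm Hg depression over 90 s, then 45 s release. Motility was then recorded in an actimeter for 10 min.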

[10] = test system: souris; experiment: Asphyxic anoxia (gallamine triethiodide); assay type: in vivo; details: dose not stated
Summary of the method: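 Male mice, 10 per dose, given compound i.p. as suspension in aqueous gum arabic (20 ml/kg). Gallamine triethiodide 32 mg/kg i.p. injected 30 min after compound.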

[11] = test system: souris; experiment: Interaction with reserpine; assay type: in vivo; details: 32 mg/kg, 64 mg/kg et 128 mg/kg i.p.
[12] = test system: souris; experiment: Interaction with apomorphine, mouse; assay type: in vivo
Summary of the method: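 Male mice, 6 per dose, received the test compound intraperitoneally as an aqueous gum arabic suspension (20 ml/kg).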

[13] = test system: souris; experiment: Interaction with barbital (sleep); assay type: in vivo; details: 32 mg/kg et 128 mg/kg i.p.
Summary of the method: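 Male mice (groups of 10) dosed intraperitoneally with compound suspended in aqueous gum arabic (20 ml/kg); barbital 220 mg/kg i.p. given half an hour later.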

[14] = test system: souris mâle; experiment: Toxicity, DL-0; assay type: in vivo; details: i.p.
Summary of the method: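 Male mice dosed intraperitoneally with compound suspended in aqueous gum arabic at 20 ml/kg. Value is DL-0, the minimal non-lethal dose.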

[15] = test system: souris; experiment: Electroshock; assay type: in vivo; details: dose not stated
[16] = test system: souris; experiment: Behavioural despair (forced immersion); assay type: in vivo; details: 8 mg/kg, 32 mg/kg et 128 mg/kg i.p.
Summary of the method: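 Male mice were dosed i.p. with compound suspended in aqueous gum arabic at 20 ml/kg, 10 per dose. Thirty minutes later each mouse was put in a confined space holding 6 cm of water, and immobility time was scored from minute 2 to minute 6.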

[17] = test system: homme; experiment: Clinical trials; assay type: in vivo
Excerpt: Les études cliniques ont porté sur les troubles de la vigilance, de l'éveil et des états confusionnels, d'une part, et sur les troubles de l'affectivité, du contact et des dépressions, d'autre part.

[18] = test system: rat; experiment: Interaction with apomorphine, rat; assay type: in vivo; details: 64 mg/kg i.p.
Summary of the method: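 Groups of 6 male rats received test compound intraperitoneally as a suspension in aqueous gum arabic (5 ml/kg).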

[19] = test system: SNC; experiment: Essential activity on the CNS (Tableau I and conclusions of the neuropsychopharmacological study); assay type: in vivo; details: in vivo
Excerpt: Dans le tableau I ci-après, on a consigné un certain nombre de composés selon la formule I de façon nullement limitative, en mentionnant l'activité essentielle sur le SNC.
Les composés de formule I agissent tous sur le SNC. Les produits des exemples 1-3 et 7-8 sont des agents stimulants, en revanche les produits des exemples 4-6 sont des agents sédatifs.

[20] = test system: souris; experiment: Spontaneous motility (actimeter); assay type: in vivo; details: 8 mg/kg, 32 mg/kg et 128 mg/kg i.p.
Summary of the method: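 Male mice dosed i.p. as a suspension in aqueous gum arabic (20 ml/kg); 30 min later they are placed in an actimeter and motility is recorded for 30 min, 6 mice per dose, 12 controls.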

[21] = test system: souris; experiment: Motility reduced by habituation to the enclosure; assay type: in vivo; details: dès 8 mg/kg et surtout à 32 mg/kg et 128 mg/kg i.p.
Summary of the method: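 Male mice (6 per dose, 12 controls) habituated 18 h in actimeters got compound i.p. as aqueous gum arabic suspension, 20 ml/kg. Returned to enclosures immediately; motility recorded for 30 min starting 30 min post-dose.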

[22] = test system: souris mâles; experiment: Global behaviour and reactivities, mouse; assay type: in vivo

NC(=O)C[S+]([O-])C(c1ccc(F)cc1)c1ccc(F)cc1 (centres unmarked) [Exemple 8, 4,4'-difluorobenzhydrylsulfinylacétamide]
Observations (comportement global et réactivités) ([1]; 16 mg/kg i.p.): excitation - réactivité au toucher pendant 2 h
Observations (comportement global et réactivités) ([1]; 64 mg/kg i.p.): excitation - réactivité au toucher - fréquence respiratoire augmentée pendant 24 h
stéréotypies amphétaminiques [2]: potentialisation
hypothermie induite par l'oxotrémorine ([3]; 2 mg/kg, 8 mg/kg, 32 mg/kg et 128 mg/kg i.p.): antagonise modérément et tardivement
signes de stimulation cholinergique périphérique dus à l'oxotrémorine ([3]; dose not stated): ne modifie pas
tremblements induits par l'oxotrémorine ([3]; dose not stated): ne sont pratiquement pas modifiés
Action sur la durée du sommeil induit par le pentobarbital (50 mg/kg i.p.) effet [4]: (a)
toxicité particulière chez les souris groupées [5]: absence de toxicité particulière
déficit moteur (traction) [6]: ne provoque pas d'incapacité motrice majeure
agressivité intergroupes (nombre de combats) [7]: n'a pas d'effet antiagressif
nombre de passages punis [8]: n'entraîne pas d'augmentation
récupération motrice après séjour bref dans une enceinte à pression réduite [9]: amélioration significative
délai d'apparition des convulsions et de la mort consécutives à une anoxie asphyxique [10]: ne modifie pas
hypothermie réserpinique [11]: antagonise tardivement
ptôsis réserpinique ([11]; à 24 h): antagonise également mais de façon modérée
own effect on temperature ([12]; 32 mg/kg et 128 mg/kg i.p.): hypothermisant
hypothermie induite par l'apomorphine ([12]; 32 mg/kg et 128 mg/kg i.p., apomorphine 1 et 16 mg/kg): aggrave
comportement de verticalisation et stéréotypies (apomorphine) ([12]; dose not stated): ne modifie pas
durée du sommeil barbiturique [13]: diminue nettement
DL-O [14]: supérieure à 256 mg/kg
effets convulsivants de l'électrochoc [15]: ne modifie pratiquement pas
durée d'immobilité de la souris placée en immersion forcée [16]: diminue nettement
action contre l'énurésie [17]: agissent efficacement
résultats en tant que médicaments de l'éveil ([17]; notamment vieillard, gélules ou comprimés de 100 à 200 mg, 1 à 3 par jour): excellents résultats
stéréotypies induites par l'apomorphine [18]: augmente
Activité sur le SNC [19]: stimulant
conclusion of the neuropsychopharmacological study: main type of CNS effect [19]: composante excitante
motilité spontanée [20]: augmentation nette
activité motrice chez la souris habituée à son enceinte [21]: reprise d'activité motrice très nette
signes de stimulation sympathique périphérique ([22]; souris): absence
Observations (comportement global et réactivités) ([22]; souris, 2 mg/kg i.p.): réactivité au toucher pendant 2 h
Observations (comportement global et réactivités) ([22]; souris, 8 mg/kg i.p.): éxcitation tardive débutant 2 h après administration - réactivité au toucher pendant 2 h
Observations (comportement global et réactivités) ([22]; souris, 512 mg/kg i.p.): démarche titubante pendant 0,75 h, - convulsions (66% des animaux) pendant 0,75 h
mortalité ([22]; souris, 512 mg/kg i.p.): 4 animaux sur 6 en 1 h, puis 2 animaux sur 6 en 24 h
convulsions ([22]; souris, 512 mg/kg i.p., pendant 0,75 h): 66 % des animaux
Observations (comportement global et réactivités) ([22]; souris, 32 mg/kg i.p.): excitation tardive débutant 1 h après administration et durant 2 h - stéréotypies 3 h après administration - réactivité au toucher pendant 24 h
Observations (comportement global et réactivités) ([22]; souris, 128 mg/kg i.p.): excitation avec stéréotypies pen-dant 3 h - augmentation de la réactivité au toucher pendant 24 h - hypothermie (-1,3°C) pendant 3 h
hypothermie ([22]; souris, 128 mg/kg i.p.): -1,3 °C
Observations (comportement global et réactivités) ([22]; souris, 256 mg/kg i.p.): excitation débutant 0,5 h après adminis-tration - stéréotypies
mortalité ([22]; souris, 256 mg/kg i.p.): pas de mortalité
résorption ([22]; supposed from the late onset of several effects and the kinetic study of stereotypies): résorption lente
